According to patent US20230103142A1, “SMALL MOLECULE REGULATORS OF NOTCH1 AND USES THEREOF” (THE PENN STATE RESEARCH FOUNDATION, priority 2020, published 2023):
Read-outs that look alike come from different tables or passages of the source.

Key:
Notch1/HCT116 clone C4 [1] = details: read-out: IC50 cell growth; C4 transfectants, 24 h
Description: (§1) Cell culture and supplies: HCT116, SW-620, TCCSUP, UMUC3, HT1376, 5637, T24 and RT4 cells were purchased from ATCC (American Type Culture Collection; Manassas, Va., USA). HCT116, T24, RT4 were maintained in McCoy's medium, TCCSUP, UMUC3, HT1376 in EMEM, SW620 in DMEM and 5637 in RPMI medium, respectively, and supplemented with 10% FBS and penicillin (100 units/mL) and streptomycin (100 units/mL; Millipore Sigma, St Louis, […]., USA) in the presence of 5% CO2 at 37° C. pCMV6-NOTCH1, vector pCMV6-Entry (NOTCH′ (NM_017617) Human ORF Clone; Origene) and NOTCH1 Human siRNA Oligo Duplex were obtained from Origene Technologies Inc. (Rockville, Md., USA). Lipofectamine 2000 reagent was used following the manufacturer's (Cat #11668019; ThermoFisher Scientific) instruction, transfection with overexpression vectors was performed with 500 ng plasmid concentration, while the siRNA was used in 25 nM concentration. Cells were allowed to be transfected for 48 hrs and later harvested or treated for further analysis. Neomycin ([…]) selection media was used to cultivate Notch1-overexpressing HCT116 clones (C1, C2, C3, C4, C5).

Notch1/HCT116 clone C5 [2] = details: read-out: IC50 cell growth; C5 transfectants, 24 h
Description: as §1

[3] = test system: Notch1 silenced HCT116 cells; details: vs scrambled transfected HCT116, 24 h
Description: as §1

MDA-MB-231 cells = experiment: apoptosis assay
ALDH+ (BCSC) cells = test system: ALDH+ (BCSC) cells
Source text: (§2) Studies have shown that Notch1 signaling is mainstay of breast cancer stem cell (BCSC) growth.

ALDH− (BC) cells = test system: ALDH− (BC) cells
Source text: as §2

Notch1/HCT116 clone C4 [4] = details: C4, IC50 concentration
Description: (§3) Flow cytometry analysis: 0.3×10^6 cells seeded in a 6 well plate and were cultured until 70-80% confluence was achieved. […] To quantify apoptosis, flow cytometry analysis of the Annexin V-FITC against Propidium Iodide (PI) assay was performed following a previously described protocol. The Apoptosis detection kit was purchased from BD Pharminogen™, San Diego, Calif., USA. All experiments were repeated in triplicate to achieve statistical relevance.

Notch1/HCT116 clone C5 [5] = details: C5, IC50 concentration
Description: as §3

pCMV/HCT116 cells = details: pCMV/HCT116, IC50 concentration
Description: as §3

HCT116 cells [6] = details: HCT116, 24 h
Description: as §3

SW-620 cells = details: SW-620, 24 h
Description: as §3

[7] = test system: NICD and HES1 in HCT116 cells; details: HCT116, IC50 concentration
Description: (§4) Protein extraction and western blotting: Mammalian Protein Extraction Reagent (Thermo Scientific, Rockford, Ill., USA) was used to extract total protein from pCMV/HCT116, C4, and C5 cells as well as bladder cancer cells were prepared with the according to the manufacturer's instructions. Western blotting was performed using specific antibodies against Notch1 (Cat: 3447S), Bcl-2 (Cat: 2872S), E-cadherin (Cat: 3195S), N-cadherin (Cat: 13116S), Snail (Cat: 3879S), β-catenin (Cat: 8480S), NF-κB (p65), Bax (Cat: 5023S), cleaved PARP (Cat: 9541L) (Cell Signaling Technology; Danvers, Mass., USA), and β-actin (Santa Cruz Biotechnologies, Dallas, Tex., USA), HES1 (Genescript; Lot QC1851, Piscataway, N.J., USA). Actin presented in the images represent the loading control for one or more markers from same cell lysates. Chemiluminescence was used to detect the positive bands on the membrane.

[8] = test system: NICD and HES1 in SW620 cells; details: SW620, IC50 concentration
Description: as §4

HCT116 cells [9] = details: read-out: IC50 cell viability
Description: Six biological replicates used for MTT assays and it was repeated twice for each experiment. […] The anchorage-independent growth assay was performed and repeated in triplicate.

ubiquitin in ALDH+ cells = experiment: ubiquitin expression; format: cell-based
[10] = test system: ALDH+ xenotransplanted tumors; experiment: ALDH+ xenotransplant tumor burden; details: ALDH+ xenotransplanted mice
[11] = test system: proteasome in ALDH+ cells; details: 15 and 30 min
Source text: Commercially available positive and negative controls were used for these experiments. […] Next, ubiquitination-associated NRR of Notch 1 degradation were examined.

purified NRR protein = details: vs vehicle (DMSO)
Description: (§5) Binding Studies. The protein-ligand binding was first studied by cellular thermal shift assay (CETSA) by following previously described protocol. […] Equal amount of cell lysate was used for ELISA with NRR antibody (Cat: NBP2-62557; Novus Biologicals). GloMelt Thermal Shift Protein Stability assay was performed as per the kit instructions (GloMelt™ Thermal Shift Protein Stability Kit; Biotium; Fermont, Calif.). […] A protein melt run profile was generated and Tm (melting temperature) was calculated using DNA melt curve software. To analyze protein melting, the Tm was considered at the lowest −dF/dT value (at the lowest point on the curve).

[12] = target: NRR of Notch1 in HCT116 cells (Homo sapiens, UniProt P46531); details: ASR490-treated HCT116 cells
NRR of Notch1 in HCT116 cells, sequence (P46531 19-2555): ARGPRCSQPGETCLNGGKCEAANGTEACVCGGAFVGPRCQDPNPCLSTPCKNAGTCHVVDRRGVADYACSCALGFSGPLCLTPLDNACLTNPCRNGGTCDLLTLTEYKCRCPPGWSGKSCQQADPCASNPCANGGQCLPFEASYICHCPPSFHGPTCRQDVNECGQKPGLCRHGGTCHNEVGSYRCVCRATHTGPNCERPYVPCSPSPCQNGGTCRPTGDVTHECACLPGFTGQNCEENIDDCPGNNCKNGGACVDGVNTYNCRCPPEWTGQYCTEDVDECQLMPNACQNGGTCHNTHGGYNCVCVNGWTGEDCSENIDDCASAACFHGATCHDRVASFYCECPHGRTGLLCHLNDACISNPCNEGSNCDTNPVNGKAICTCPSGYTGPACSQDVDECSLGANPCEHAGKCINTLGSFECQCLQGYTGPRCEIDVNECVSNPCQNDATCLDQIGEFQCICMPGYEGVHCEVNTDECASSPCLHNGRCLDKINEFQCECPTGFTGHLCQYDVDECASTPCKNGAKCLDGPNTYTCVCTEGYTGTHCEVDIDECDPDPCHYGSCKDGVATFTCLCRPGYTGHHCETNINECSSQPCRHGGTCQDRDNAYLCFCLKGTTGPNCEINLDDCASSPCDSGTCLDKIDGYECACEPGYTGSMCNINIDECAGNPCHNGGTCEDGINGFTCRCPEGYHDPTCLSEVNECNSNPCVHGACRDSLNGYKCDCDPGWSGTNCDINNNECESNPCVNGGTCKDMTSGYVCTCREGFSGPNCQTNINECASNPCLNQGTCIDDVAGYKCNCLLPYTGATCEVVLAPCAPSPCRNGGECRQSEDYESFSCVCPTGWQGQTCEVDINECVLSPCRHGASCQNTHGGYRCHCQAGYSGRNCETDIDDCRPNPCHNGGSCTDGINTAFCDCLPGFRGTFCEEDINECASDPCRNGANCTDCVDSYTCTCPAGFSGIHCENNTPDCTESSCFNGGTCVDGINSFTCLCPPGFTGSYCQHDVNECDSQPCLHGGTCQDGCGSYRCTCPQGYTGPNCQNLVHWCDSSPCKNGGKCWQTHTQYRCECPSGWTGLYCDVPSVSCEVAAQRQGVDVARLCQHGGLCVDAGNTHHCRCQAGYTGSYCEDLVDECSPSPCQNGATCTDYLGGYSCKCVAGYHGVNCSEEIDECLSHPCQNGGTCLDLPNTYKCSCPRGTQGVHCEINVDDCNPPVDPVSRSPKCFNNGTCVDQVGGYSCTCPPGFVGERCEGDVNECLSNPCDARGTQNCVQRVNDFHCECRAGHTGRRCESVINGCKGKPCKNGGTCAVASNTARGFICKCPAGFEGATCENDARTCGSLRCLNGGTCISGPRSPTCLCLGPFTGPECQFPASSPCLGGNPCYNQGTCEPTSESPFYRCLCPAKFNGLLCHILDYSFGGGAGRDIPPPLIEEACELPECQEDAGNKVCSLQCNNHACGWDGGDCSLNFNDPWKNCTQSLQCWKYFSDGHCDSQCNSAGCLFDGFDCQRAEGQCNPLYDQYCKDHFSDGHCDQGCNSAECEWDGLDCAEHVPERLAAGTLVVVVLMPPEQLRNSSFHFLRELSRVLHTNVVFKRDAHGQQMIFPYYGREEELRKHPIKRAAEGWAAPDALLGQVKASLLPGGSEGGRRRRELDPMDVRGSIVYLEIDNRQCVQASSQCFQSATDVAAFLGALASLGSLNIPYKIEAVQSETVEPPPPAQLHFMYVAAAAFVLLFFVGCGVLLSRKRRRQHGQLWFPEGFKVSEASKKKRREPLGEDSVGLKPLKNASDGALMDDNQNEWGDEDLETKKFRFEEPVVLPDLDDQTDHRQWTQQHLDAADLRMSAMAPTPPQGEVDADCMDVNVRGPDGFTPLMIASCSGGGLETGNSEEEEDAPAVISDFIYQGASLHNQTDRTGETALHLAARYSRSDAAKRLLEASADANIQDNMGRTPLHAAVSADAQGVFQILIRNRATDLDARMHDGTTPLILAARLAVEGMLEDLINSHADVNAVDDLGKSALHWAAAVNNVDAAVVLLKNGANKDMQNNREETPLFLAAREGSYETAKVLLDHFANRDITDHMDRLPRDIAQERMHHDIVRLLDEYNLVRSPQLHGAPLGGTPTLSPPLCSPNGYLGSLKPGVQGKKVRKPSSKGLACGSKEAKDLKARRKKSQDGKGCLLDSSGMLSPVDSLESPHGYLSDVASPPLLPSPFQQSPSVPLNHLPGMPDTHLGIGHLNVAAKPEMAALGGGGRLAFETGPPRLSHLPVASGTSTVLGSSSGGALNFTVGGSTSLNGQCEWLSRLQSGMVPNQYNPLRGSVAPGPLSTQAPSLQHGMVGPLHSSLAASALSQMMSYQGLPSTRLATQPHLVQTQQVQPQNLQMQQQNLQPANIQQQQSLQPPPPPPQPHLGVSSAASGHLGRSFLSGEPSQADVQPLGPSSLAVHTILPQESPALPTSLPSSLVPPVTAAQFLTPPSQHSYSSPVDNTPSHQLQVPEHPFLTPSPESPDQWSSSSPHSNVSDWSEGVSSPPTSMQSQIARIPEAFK
Description: as §5

[13] = read-out: IC 50 cell growth, 24 h
[14] = read-out: IC 50 cell growth, 48 h

CC1=C(CO)C(=O)O[C@@H]([C@@H](C)[C@H]2CC[C@H]3[C@@H]4C[C@H]5O[C@]56[C@@H](OC(=O)c5ccccn5)C=CC(=O)[C@]6(C)[C@H]4CC[C@]23C)C1 [ASR490, Pyridine-2-carboxylic acid {17-[1-(5-hydroxymethyl-4-methyl-6-oxo-3,6-dihydro-2H-pyran-2-yl)-ethyl]-10,13-dimethyl-1-oxo, 4,6,7,8,9,10,11,12,13,14,15,16,17-tetradecahydro-20-oxacyclopropa[5,6]cyclopenta[a]phenanthren-4-yl}ester]
IC50 (Notch1/HCT116 clone C4 [1]): 800 nM | IC50 (Notch1/HCT116 clone C5 [2]): 1100 nM | growth of Notch1 silenced cells [3]: failed to inhibit the growth | apoptosis (MDA-MB-231 cells; MDA MB-231, 24 h): approximately 20 | apoptosis (MDA-MB-231 cells; MDA MB-231, 48 h): ~43 | IC50 (ALDH+ (BCSC) cells; [13]): 770 nM | IC50 (ALDH+ (BCSC) cells; [14]): 443 nM | IC50 (ALDH− (BC) cells; [13]): 1600 nM | IC50 (ALDH− (BC) cells; [14]): 836 nM | induction of apoptosis (Notch1/HCT116 clone C4 [4]): 13.4% | induction of apoptosis (Notch1/HCT116 clone C5 [5]): 13.2% | induction of apoptosis (pCMV/HCT116 cells): 25.8% | induction of apoptosis (HCT116 cells [6]): 19.9% | induction of apoptosis (SW-620 cells): 9.57% | expression of NICD and HES1 protein [7]: Significant downregulation | expression of NICD and HES1 protein [8]: Significant downregulation | IC50 (HCT116 cells [9]; HCT 116, 24-h): 750 nM | IC50 (HCT116 cells [9]; HCT 116, 48-h): 600 nM | ubiquitin expression (ubiquitin in ALDH+ cells): time dependent increased ubiquitin expression | safe dose relative to dose used in efficacy studies (500 mg/kg vs 5 mg/kg): 100 times | safe dose (MTD check) (nu/nu mice): ≤ 500 mg/kg | tumor burden [10]: significantly reduced tumor burden | proteasome inhibition [11]: not a proteasomal inhibitor | thermal stabilization of NRR protein (purified NRR protein): increased stabilization of NRR protein | binding to NRR by CETSA [12]: binds directly to NRR
